According to patent US10376520B2, “Methods for the treatment of cardiovascular disorders” (Galapagos NV, priority 2015, dated 2019):

Tested on: RA patients
Experiment: [HDL] determination, Study 1 (RA patients, add-on to MTX)
Type: in vivo, human
Method: Double-blind, placebo-controlled add on study in subjects with moderately to severely active RA who have an inadequate response to methotrexate (MTX) (oral or parenteral).
595 subjects randomized to one of 6 dose regimens of Compound 1 (dosed as a [Compound 1:HCl:3H2O]) (3 dose levels administered either once or twice daily) or placebo on top of each subject's stable dose of MTX.
Compound 1 (dosed as a [Compound 1:HCl:3H2O]) is dosed for twelve weeks once daily (q.d.) (50 mg, 100 mg or 200 mg) or twice daily (b.i.d.) (25 mg, 50 mg or 100 mg); or placebo.
At Week 12, the subjects on placebo who have not achieved 20% improvement in swollen joint count (SJC66) and tender joint count (TJC68) are re-randomized automatically to receive Compound 1 (dosed as a [Compound 1:HCl:3H2O]) either at 100 mg q.d. or 50 mg b.i.d. doses in a blinded fashion; subjects on 50 mg q.d. who have not achieved 20% improvement in SJC66 and TJC68 will be assigned to 100 mg q.d. and subjects on 25 mg b.i.d. that have not achieved a 20% improvement in SJC66 and TJC68 will be assigned to 50 mg b.i.d. Subjects who switch treatment at week 12 are handled as if they discontinued at week 12 for the purpose of statistical analysis, whereas subjects in the other groups will maintain their randomized treatment until Week 24.
This assay relies on a homogeneous enzymatic colorimetric test. In the presence of magnesium ions, dextran sulfate selectively forms water-soluble complexes with LDL, VLDL and chylomicrons which are resistant to PEG-modified enzymes.
The cholesterol concentration of [HDL]-cholesterol is determined enzymatically by cholesterol esterase and cholesterol oxidase coupled with PEG to the amino groups (approx. 40%).
In the presence of peroxidase, the hydrogen peroxide generated reacts with 4-amino-antipyrine and Sodium N-(2-hydroxy-3-sulfopropyl)-3,5-dimethoxyaniline (HSDA) to form a purple-blue dye. The color intensity of this dye is directly proportional to the cholesterol concentration and is measured photometrically.
Human serum and plasma samples [HDL] determination was done on a Roche/Hitachi Cobas c 701/702 system which automatically calculate the analyte concentration of each sample. Samples containing precipitates are centrifuged before performing the assay.

[1] = 2 x 25 mg b.i.d. (N = 86), week 1
[2] = 2 x 25 mg b.i.d. (N = 86), week 2
[3] = 2 x 25 mg b.i.d. (N = 86), week 4
[4] = 2 x 25 mg b.i.d. (N = 86), week 8
[5] = 2 x 25 mg b.i.d. (N = 86), week 12
[6] = 2 x 50 mg b.i.d. (N = 85), week 1
[7] = 2 x 50 mg b.i.d. (N = 85), week 2
[8] = 2 x 50 mg b.i.d. (N = 85), week 4
[9] = 2 x 50 mg b.i.d. (N = 85), week 8

## O=C(Nc1nc2cccc(-c3ccc(CN4CCS(=O)(=O)CC4)cc3)n2n1)C1CC1 [Compound 1, cyclopropanecarboxylic acid {5-[4-(1,1-dioxo-thiomorpholin-4-ylmethyl)-phenyl]-[1,2,4]triazolo[1,5-a]pyridin-2yl}-amide]
50 mg q.d. (N = 82), week 1
  [HDL] Mean CFB - 12 weeks results: 0.02 mmol/L
  [HDL] Mean percentage CFB - 12 weeks results: 2%
  [HDL] Median CFB - 12 weeks results: 0.01 mmol/L
50 mg q.d. (N = 82), week 2
  [HDL] Mean CFB - 12 weeks results: 0.08 mmol/L
  [HDL] Mean percentage CFB - 12 weeks results: 5%
  [HDL] Median CFB - 12 weeks results: 0.08 mmol/L
50 mg q.d. (N = 82), week 4
  [HDL] Mean CFB - 12 weeks results: 0.06 mmol/L
  [HDL] Mean percentage CFB - 12 weeks results: 5%
  [HDL] Median CFB - 12 weeks results: 0.05 mmol/L
50 mg q.d. (N = 82), week 8
  [HDL] Mean CFB - 12 weeks results: 0.06 mmol/L
  [HDL] Mean percentage CFB - 12 weeks results: 6%
  [HDL] Median CFB - 12 weeks results: 0.10 mmol/L
50 mg q.d. (N = 82), week 12
  [HDL] Mean CFB - 12 weeks results: 0.06 mmol/L
  [HDL] Mean percentage CFB - 12 weeks results: 7%
  [HDL] Median CFB - 12 weeks results: 0.05 mmol/L
100 mg q.d. (N = 85), week 1
  [HDL] Mean CFB - 12 weeks results: 0.05 mmol/L
  [HDL] Mean percentage CFB - 12 weeks results: 5%
  [HDL] Median CFB - 12 weeks results: 0.06 mmol/L
100 mg q.d. (N = 85), week 2
  [HDL] Mean CFB - 12 weeks results: 0.07 mmol/L
  [HDL] Mean percentage CFB - 12 weeks results: 7%
  [HDL] Median CFB - 12 weeks results: 0.07 mmol/L
100 mg q.d. (N = 85), week 4
  [HDL] Mean CFB - 12 weeks results: 0.11 mmol/L
  [HDL] Mean percentage CFB - 12 weeks results: 9%
  [HDL] Median CFB - 12 weeks results: 0.13 mmol/L
100 mg q.d. (N = 85), week 8
  [HDL] Mean CFB - 12 weeks results: 0.09 mmol/L
  [HDL] Mean percentage CFB - 12 weeks results: 8%
  [HDL] Median CFB - 12 weeks results: 0.11 mmol/L
100 mg q.d. (N = 85), week 12
  [HDL] Mean CFB - 12 weeks results: 0.10 mmol/L
  [HDL] Mean percentage CFB - 12 weeks results: 8%
  [HDL] Median CFB - 12 weeks results: 0.10 mmol/L
200 mg q.d. (N = 86), week 1
  [HDL] Mean CFB - 12 weeks results: 0.11 mmol/L
  [HDL] Mean percentage CFB - 12 weeks results: 9%
  [HDL] Median CFB - 12 weeks results: 0.13 mmol/L
200 mg q.d. (N = 86), week 2
  [HDL] Mean CFB - 12 weeks results: 0.20 mmol/L
  [HDL] Mean percentage CFB - 12 weeks results: 17%
  [HDL] Median CFB - 12 weeks results: 0.20 mmol/L
200 mg q.d. (N = 86), week 4
  [HDL] Mean CFB - 12 weeks results: 0.24 mmol/L
  [HDL] Mean percentage CFB - 12 weeks results: 20%
  [HDL] Median CFB - 12 weeks results: 0.25 mmol/L
200 mg q.d. (N = 86), week 8
  [HDL] Mean CFB - 12 weeks results: 0.29 mmol/L
  [HDL] Mean percentage CFB - 12 weeks results: 22%
  [HDL] Median CFB - 12 weeks results: 0.30 mmol/L
200 mg q.d. (N = 86), week 12
  [HDL] Mean CFB - 12 weeks results: 0.27 mmol/L
  [HDL] Mean percentage CFB - 12 weeks results: 21%
  [HDL] Median CFB - 12 weeks results: 0.26 mmol/L
[1]
  [HDL] Mean CFB - 12 weeks results: 0.00 mmol/L
  [HDL] Mean percentage CFB - 12 weeks results: 0%
  [HDL] Median CFB - 12 weeks results: 0.00 mmol/L
[2]
  [HDL] Mean CFB - 12 weeks results: 0.04 mmol/L
  [HDL] Mean percentage CFB - 12 weeks results: 4%
  [HDL] Median CFB - 12 weeks results: 0.05 mmol/L
[3]
  [HDL] Mean CFB - 12 weeks results: 0.05 mmol/L
  [HDL] Mean percentage CFB - 12 weeks results: 4%
  [HDL] Median CFB - 12 weeks results: 0.05 mmol/L
[4]
  [HDL] Mean CFB - 12 weeks results: 0.06 mmol/L
  [HDL] Mean percentage CFB - 12 weeks results: 5%
  [HDL] Median CFB - 12 weeks results: 0.10 mmol/L
[5]
  [HDL] Mean CFB - 12 weeks results: 0.06 mmol/L
  [HDL] Mean percentage CFB - 12 weeks results: 6%
  [HDL] Median CFB - 12 weeks results: 0.05 mmol/L
[6]
  [HDL] Mean CFB - 12 weeks results: 0.03 mmol/L
  [HDL] Mean percentage CFB - 12 weeks results: 4%
  [HDL] Median CFB - 12 weeks results: 0.05 mmol/L
[7]
  [HDL] Mean CFB - 12 weeks results: 0.12 mmol/L
  [HDL] Mean percentage CFB - 12 weeks results: 10%
  [HDL] Median CFB - 12 weeks results: 0.10 mmol/L
[8]
  [HDL] Mean CFB - 12 weeks results: 0.13 mmol/L
  [HDL] Mean percentage CFB - 12 weeks results: 12%
  [HDL] Median CFB - 12 weeks results: 0.13 mmol/L
[9]
  [HDL] Mean CFB - 12 weeks results: 0.13 mmol/L
  [HDL] Mean percentage CFB - 12 weeks results: 11%
  [HDL] Median CFB - 12 weeks results: 0.14 mmol/L
